Test results published in patent US8143304B2, “(3-amino-1,2,3,4-tetrahydro-9 H-carbazol-9-yl)-acetic acid derivatives” (Actelion Pharmaceutical Ltd., priority 2006, dated 2012).

molecular target: T1, hCRTH2 receptor (Homo sapiens, UniProt Q9Y5Y4); experiment: hCRTH2 receptor membranes radioligand binding assay ({3H}-PGD2); details: {3H}-PGD2 2.5 nM, membranes of HEK 293 cells expressing recombinant hCRTH2 receptor; read-out: hCRTH2 Bdg IC50
T1 construct: expressed in transfected cells; host or cells: clonal HEK 293 cell line (membrane preparation)
T1 sequence (Q9Y5Y4 1-395): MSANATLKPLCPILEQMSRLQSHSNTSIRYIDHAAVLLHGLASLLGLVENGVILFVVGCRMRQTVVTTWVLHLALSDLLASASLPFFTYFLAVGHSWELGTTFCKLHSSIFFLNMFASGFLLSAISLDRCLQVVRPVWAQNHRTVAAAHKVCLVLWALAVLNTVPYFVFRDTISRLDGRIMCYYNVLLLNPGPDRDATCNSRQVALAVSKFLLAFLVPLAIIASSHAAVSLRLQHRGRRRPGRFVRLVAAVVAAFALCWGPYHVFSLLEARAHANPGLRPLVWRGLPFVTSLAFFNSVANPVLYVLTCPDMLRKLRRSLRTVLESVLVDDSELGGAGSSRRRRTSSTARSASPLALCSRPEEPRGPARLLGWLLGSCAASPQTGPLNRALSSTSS
Description: The biological effect of such compounds may be tested in a variety of in vitro, ex vivo and in vivo assays.
Biological Assays: Preparation of hCRTH2 Receptor Membranes and Radioligand Binding Assay:
Cells are detached from culture plates in 5 ml buffer A per plate (5 mM Tris, pH 7.4, 1 mM MgCl2, 0.1 mM PMSF, 0.1 mM phenanthroline) using a police rubber and transferred into centrifugation tubes and frozen at −80° C. After thawing, the cells are centrifuged at 500 g for 5 min and then resuspended in buffer A. Cells are then fragmented by homogenization with a Polytron cell homogenizer for 30 s. The membrane fragments are collected by centrifugation at 3000 g for 40 min and resuspended in buffer B (50 mM Tris, pH 7.4, 25 mM MgCl2, 250 mM saccharose) and aliquots are stored at […].
Binding assay is performed in a total volume of 250 μl. […] For unspecific binding, PGD2 is added to the reaction mixture at 1 μM final concentration. This binding assay mix is incubated at rt for 90 min and then filtered through a GF/C filter plate. The filter is washed three times with ice cold binding buffer C. Then, Microscint-40 (Packard, 40 μl/well) is added and the receptor bound radioactivity is quantified by scintillation counting in a “TopCount” benchtop microplate scintillation counter (Packard).

Row | SMILES | IC50
1 | CS(=O)(=O)c1ccc(CCC(=O)N[C@H]2CCc3c(c4cc(F)ccc4n3CC(=O)O)C2)cc1 [(3S)-{6-Fluoro-3-[3-(4-methanesulfonyl-phenyl)-propionylamino]-1,2,3,4-tetrahydro-9H-carbazol-9-yl}-acetic acid] | 72 nM
2 | O=C(O)Cn1c2c(c3cc(F)ccc31)C[C@@H](NC(=O)C1Cc3ccccc3N1)CC2 (stereo partly drawn) [(3S)-{3-[(2,3-Dihydro-1H-indole-2-carbonyl)-amino]-6-fluoro-1,2,3,4-tetrahydro-9H-carbazol-9-yl}-acetic acid] | 11 nM
3 | O=C(O)Cn1c2c(c3ccccc31)C[C@H](NC(=O)NS(=O)(=O)c1ccccc1)CC2 [(3R)-[3-(3-Phenylsulfonyl-ureido)-1,2,3,4-tetrahydro-9H-carbazol-9-yl]-acetic acid] | 147 nM
4 | COCCN(C(=O)CCc1ccccc1OC)[C@H]1CCc2c(c3cc(F)ccc3n2CC(=O)O)C1 [(3S)-(6-Fluoro-3-{(2-methoxy-ethyl)-[3-(2-methoxy-phenyl)-propionyl]-amino}-1,2,3,4-tetrahydro-9H-carbazol-9-yl)-acetic acid] | 6 nM
5 | O=C(O)Cn1c2c(c3cc(F)ccc31)C[C@@H](NC(=O)CCc1cccc(OC(F)(F)F)c1)CC2 [(3S)-{6-Fluoro-3-[3-(3-trifluoromethoxy-phenyl)-propionylamino]-1,2,3,4-tetrahydro-9H-carbazol-9-yl}-acetic acid] | 47 nM
6 | CCN(C(=O)CCc1ccccc1)[C@H]1CCc2c(c3cc(F)ccc3n2CC(=O)O)C1 [(3S)-{6-Fluoro-3-[ethyl-(3-phenyl-propionyl)-amino]-1,2,3,4-tetrahydro-9H-carbazol-9-yl}-acetic acid] | 16 nM
7 | O=C(O)Cn1c2c(c3cc(F)ccc31)C[C@@H](NC(=O)CCc1cc(C(F)(F)F)ccc1C(F)(F)F)CC2 [(3S)-{3-[3-(2,5-Bis-trifluoromethyl-phenyl)-propionylamino]-6-fluoro-1,2,3,4-tetrahydro-9H-carbazol-9-yl}-acetic acid] | 15 nM
8 | COc1cccc2c1CC(C(=O)N[C@H]1CCc3c(c4cc(F)ccc4n3CC(=O)O)C1)CC2 (mixture of isomers) [(3S)-(6-Fluoro-3-{[(2RS)-8-methoxy-1,2,3,4-tetrahydro-naphthalene-2-carbonyl]-amino}-1,2,3,4-tetrahydro-9H-carbazol-9-yl)-acetic acid] | 18 nM
9 | O=C(O)Cn1c2c(c3ccccc31)C[C@@H](NC(=O)OCCOCc1ccccc1)CC2 [(3S)-[3-(2-Benzyloxy-ethoxycarbonylamino)-1,2,3,4-tetrahydro-9H-carbazol-9-yl]-acetic acid] | 117 nM
10 | O=C(O)Cn1c2c(c3cc(F)ccc31)C[C@@H](NC(=O)CCc1ccccc1O)CC2 [(3S)-{6-Fluoro-3-[3-(2-hydroxy-phenyl)-propionylamino]-1,2,3,4-tetrahydro-9H-carbazol-9-yl}-acetic acid] | 33 nM
11 | CCCCNC(=O)N[C@H]1CCc2c(c3ccccc3n2CC(=O)O)C1 [(3S)-[3-(3-Butyl-ureido)-1,2,3,4-tetrahydro-9H-carbazol-9-yl]-acetic acid] | 896 nM
12 | CN(C(=O)COCc1ccccc1)[C@H]1CCc2c(c3cc(F)ccc3n2CC(=O)O)C1 [(3S)-{3-[(2-Benzyloxy-acetyl)-methyl-amino]-6-fluoro-1,2,3,4-tetrahydro-9H-carbazol-9-yl}-acetic acid] | 60 nM
13 | O=C(O)Cn1c2c(c3cc(F)cc(Cl)c31)CC(NC(=O)CCc1ccccc1)CC2 (racemic) | 57 nM
14 | CC(C)COC(=O)N[C@H]1CCc2c(c3ccccc3n2CC(=O)O)C1 [(3S)-(3-Isobutoxycarbonylamino-1,2,3,4-tetrahydro-9H-carbazol-9-yl)-acetic acid] | 84 nM
15 | O=C(O)Cn1c2c(c3cc(C(F)(F)F)ccc31)CC(NC(=O)OCc1ccccc1)CC2 (racemic) | 26 nM
16 | O=C(O)Cn1c2c(c3cc(F)ccc31)C[C@@H](NC(=O)c1cc3ccccc3[nH]1)CC2 [(3S)-{6-Fluoro-3-[(1H-indole-2-carbonyl)-amino]-1,2,3,4-tetrahydro-9H-carbazol-9-yl}-acetic acid] | 824 nM

Row | SMILES | IC50
17 | CSc1ccc(CCC(=O)N[C@H]2CCc3c(c4cc(F)ccc4n3CC(=O)O)C2)cc1 [(3S)-{6-Fluoro-3-[3-(4-methylsulfanyl-phenyl)-propionylamino]-1,2,3,4-tetrahydro-9H-carbazol-9-yl}-acetic acid] | 14 nM
18 | Cc1ccc(CCC(=O)N[C@@H]2CCc3c(c4cc(F)ccc4n3CC(=O)O)C2)cc1 [(3R)-[6-Fluoro-3-(3-p-tolyl-propionylamino)-1,2,3,4-tetrahydro-9H-carbazol-9-yl]-acetic acid] | 61 nM
19 | O=C(O)Cn1c2c(c3cc(F)ccc31)C[C@H](NC(=O)CCc1cccc(Cl)c1)CC2 [(3R)-{3-[3-(3-Chloro-phenyl)-propionylamino]-6-fluoro-1,2,3,4-tetrahydro-9H-carbazol-9-yl}-acetic acid] | 39 nM
20 | C[C@@H](Cc1ccccc1)C(=O)N(CCOc1ccccc1)[C@H]1CCc2c(c3cc(F)ccc3n2CC(=O)O)C1 [(3S)-{6-Fluoro-3-[((S)-2-methyl-3-phenyl-propionyl)-(2-phenoxy-ethyl)-amino]-1,2,3,4-tetrahydro-9H-carbazol-9-yl}-acetic acid] | 21 nM
21 | O=C(O)Cn1c2c(c3ccccc31)C[C@H](NC(=O)Cc1cccs1)CC2 [(3R)-[3-(2-Thiophen-2-yl-acetylamino)-1,2,3,4-tetrahydro-9H-carbazol-9-yl]-acetic acid] | 297 nM
22 | O=C(O)Cn1c2c(c3ccccc31)C[C@H](NC(=O)c1ccccc1)CC2 [(3R)-(3-Benzoylamino-1,2,3,4-tetrahydro-9H-carbazol-9-yl)-acetic acid] | 488 nM
23 | CC(=O)N(CCc1ccccc1F)[C@H]1CCc2c(c3cc(F)ccc3n2CC(=O)O)C1 [(3S)-(3-{Acetyl-[2-(2-fluoro-phenyl)-ethyl]-amino}-6-fluoro-1,2,3,4-tetrahydro-9H-carbazol-9-yl)-acetic acid] | 4 nM
24 | O=C(O)Cn1c2c(c3ccccc31)C[C@H](NC(=O)CCC1CCCC1)CC2 [(3R)-[3-(3-Cyclopentyl-propionylamino)-1,2,3,4-tetrahydro-9H-carbazol-9-yl]-acetic acid] | 400 nM
25 | O=C(O)Cn1c2c(c3cc(F)ccc31)C[C@@H](NC(=O)CC(c1ccccc1)c1ccccc1)CC2 [(3S)-[3-(3,3-Diphenyl-propionylamino)-6-fluoro-1,2,3,4-tetrahydro-9H-carbazol-9-yl]-acetic acid] | 2 nM
26 | CC(C)(C)OC(=O)Nc1cccc(CCC(=O)N[C@H]2CCc3c(c4cc(F)ccc4n3CC(=O)O)C2)c1 [(3S)-{3-[3-(3-tert-Butoxycarbonylamino-phenyl)-propionylamino]-6-fluoro-1,2,3,4-tetrahydro-9H-carbazol-9-yl}-acetic acid] | 93 nM
27 | O=C(O)Cn1c2c(c3cc(F)ccc31)C[C@@H](NC(=O)CCc1ccc3c(c1)OCO3)CC2 [(3S)-[3-(3-Benzo[1,3]dioxol-5-yl-propionylamino)-6-fluoro-1,2,3,4-tetrahydro-9H-carbazol-9-yl]-acetic acid] | 15 nM
28 | COc1cccc(NC(=O)CC(Cc2ccccc2)C(=O)N[C@H]2CCc3c(c4cc(F)ccc4n3CC(=O)O)C2)c1 (mixture of isomers) [(3S)-{3-[(RS)-2-Benzyl-3-(3-methoxy-phenylcarbamoyl)-propionylamino]-6-fluoro-1,2,3,4-tetrahydro-9H-carbazol-9-yl}-acetic acid] | 6 nM
29 | O=C(O)Cn1c2c(c3ccccc31)C[C@H](NC(=O)Nc1cccc3ccccc13)CC2 [(3R)-[3-(3-Naphthalen-1-yl-ureido)-1,2,3,4-tetrahydro-9H-carbazol-9-yl]-acetic acid] | 152 nM
30 | O=C(O)Cn1c2c(c3cc(F)ccc31)C[C@@H](NC(=O)COc1ccc(Cl)cc1)CC2 [(3S)-{3-[2-(4-Chloro-phenoxy)-acetylamino]-6-fluoro-1,2,3,4-tetrahydro-9H-carbazol-9-yl}-acetic acid] | 9 nM
31 | O=C(O)Cn1c2c(c3cc(F)ccc31)C[C@@H](N(CC1CCCCC1)C(=O)NCc1ccccc1)CC2 [(3S)-[3-(3-Benzyl-1-cyclohexylmethyl-ureido)-6-fluoro-1,2,3,4-tetrahydro-9H-carbazol-9-yl]-acetic acid] | 6 nM
32 | O=C(O)Cn1c2c(c3cc(F)ccc31)C[C@@H](NC(=O)CCc1ccc(Cl)cc1Cl)CC2 [(3S)-{3-[3-(2,4-Dichloro-phenyl)-propionylamino]-6-fluoro-1,2,3,4-tetrahydro-9H-carbazol-9-yl}-acetic acid] | 16 nM
